According to patent publication US20090281054A1, “COMPOSITIONS AND METHODS COMPRISING CAPURAMYCIN ANALOGUES” (priority 2008, published 2009):
Values after ≈ are worked out from the molar mass of the structure shown. Where two headings read alike, the source gives them in different places.

Tests used:
MSMG and MTB (H37Rv) = assay: Minimum bactericidal concentration (MBC), MBC/MIC ratio; assay type: cell-based, Mycobacterium tuberculosis; M. smegmatis
[1] = tested on: M. smegmatis (MSMG; MC2155); assay: MIC by microdilution method in 7H9 broth; assay type: cell-based; conditions: MSMG MC^2155, 72 hr
[2] = tested on: Mycobacterium tuberculosis (MTB); assay: MIC by BACTEC radiometric method; assay type: cell-based
Procedure: Determination of MIC. MIC of drugs for laboratory and clinical strains of Mycobacterium tuberculosis (MTB) was determined by BACTEC radiometric method as described by Heifets (1991), “Antituberculosis Drugs: Antimicrobial Activity in vitro, Drug Susceptibility in the Chemotherapy of Microbacterial Infections, Boca Raton, Fla., CRC Press and Luna-Herrera et al., Antimicrob. Agents and Chemother. 1995, 39(2), 440-444. […] The minimal inhibitory concentration (MIC) was defined as the lowest concentrations of drug that caused GI equal to or less than that of the 1/100 dilution growth control. Capuramycin analogues SQ641, SQ922 and SQ997 were tested at concentrations ranging from […].

MTB H37Rv = assay: MIC by broth microdilution; assay type: cell-based; conditions: Mycobacterium tuberculosis
Procedure: (§1) The SQ997 amino acid derivatives shown in Table 2 were tested for in vitro activity against MTB, cytotoxicity for uninfected J774 cells to determine IC50, and for intracellular activity in the macrophage assay (Table 15). […] Cell viability remained similar to SQ997, or slightly better as cell morphologic changes were reduced.

M. avium complex (MAC) = assay: MIC by microdilution method in 7H9 broth; assay type: cell-based; conditions: Mycobacterium avium
MTB cultures = assay: Induction of morphological changes and bacterial disintegration; assay type: cell-based, Mycobacterium tuberculosis
Excerpt: Induction of morphological changes and bacterial disintegration. […] Tubercle bacilli exposed to CM analogues were typically club-shaped, with deeply stained swollen ends (see Reddy et al. Antimicrob. Agents Chemother., 2008, 52(2), 719-721).

translocase I = translocase I (Escherichia coli, UniProt P0A6W3); assay: IC50 against translocase I; assay type: biochemical
[3] = tested on: M. abscessus (MAB; ATCC 700869); assay: MIC by microdilution method in 7H9 broth; assay type: cell-based; conditions: Mycobacteroides abscessus, ATCC700869; MAB 700869; read-out: MIC
[4] = tested on: M. kansaii (MKN; ATCC12478 & 35775); assay: MIC by microdilution method in 7H9 broth; assay type: cell-based, M. kansasii; conditions: Mycobacterium kansasii, read-out: MIC
in vitro = assay type: cell-based; conditions: mouse
Procedure: as §1

MTB = assay: In vivo efficacy in mouse model of chronic TB disease (lung CFU); conditions: mice treated for 3 wk, starting 3 wk after infection, gav, ip, iv
Procedure: In vivo activity against MTB. In vivo efficacy of CM analogues was investigated in a mouse model of chronic TB disease (FIG. 2). Three wk after infection, mice were treated for 3 wk with the drugs by gavage (gav), intraperitoneal injection (ip), intravenous injection (iv), or intranasal (in) routes. Efficacy was analyzed by determining Colony-Forming Units (CFU) in lungs. […] Each achieved a decrease of 1-log10 lung CFU compared to the late control [LC] CFU by at least one route, which varied for each drug.

[5] = 4-day IV injections at 1000 mg/kg/day

Sequence of translocase I (P0A6W3 whole entry): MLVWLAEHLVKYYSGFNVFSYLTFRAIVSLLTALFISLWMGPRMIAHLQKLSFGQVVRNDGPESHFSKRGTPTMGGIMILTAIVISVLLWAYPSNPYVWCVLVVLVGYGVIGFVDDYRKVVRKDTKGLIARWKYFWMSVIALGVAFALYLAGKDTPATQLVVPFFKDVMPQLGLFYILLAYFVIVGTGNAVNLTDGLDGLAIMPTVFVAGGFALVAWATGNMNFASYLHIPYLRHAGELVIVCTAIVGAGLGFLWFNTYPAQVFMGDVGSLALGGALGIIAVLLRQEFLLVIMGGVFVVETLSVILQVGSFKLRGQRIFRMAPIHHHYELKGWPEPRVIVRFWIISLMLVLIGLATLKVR

CO[C@H]1[C@@H](O)[C@H](n2ccc(=O)[nH]c2=O)O[C@@H]1[C@@H](O[C@H]1OC(C(=O)N[C@H]2CCC[C@@H](C)NC2=O)=C[C@H](O)[C@@H]1O)C(N)=O [SQ997]
MBC/MIC ratio (MSMG and MTB (H37Rv)): 1
MIC [1]: 8 µg/mL (≈ 13.7 µM)
MIC ([1]; Mycolicibacterium smegmatis, MC2155|MC^2155, read-out: MIC): 8 µg/mL (≈ 13.7 µM)
MIC ([2]; H37RV, MTB strain H37Rv): 8 µg/mL (≈ 13.7 µM)
MIC90 ([2]; MTB): 16 µg/mL (≈ 27.4 µM)
MIC ([2]; MTB strain 16): 16 µg/mL (≈ 27.4 µM)
MIC ([2]; MTB strain 113): 16 µg/mL (≈ 27.4 µM)
MIC ([2]; MTB strain 158): 8 µg/mL (≈ 13.7 µM)
MIC ([2]; MTB strain 606): 16 µg/mL (≈ 27.4 µM)
MIC ([2]; MTB strain 847): 16 µg/mL (≈ 27.4 µM)
MIC ([2]; MTB strain 1351): 16 µg/mL (≈ 27.4 µM)
MIC ([2]; MTB strain 1407): 16 µg/mL (≈ 27.4 µM)
MIC ([2]; MTB strain 1498): 16 µg/mL (≈ 27.4 µM)
MIC ([2]; MTB strain 1665): 16 µg/mL (≈ 27.4 µM)
MIC ([2]; MTB strain 1703): 16 µg/mL (≈ 27.4 µM)
MIC ([2]; MTB strain 1760): > 16 µg/mL
MIC ([2]; MTB strain 1782): > 16 µg/mL
MIC ([2]; MTB strain 1901): 16 µg/mL (≈ 27.4 µM)
MIC ([2]; MTB strain 1921): 16 µg/mL (≈ 27.4 µM)
MIC ([2]; MTB strain 2224): 16 µg/mL (≈ 27.4 µM)
MIC ([2]; MTB strain 2554): 16 µg/mL (≈ 27.4 µM)
MIC ([2]; MTB strain 2693): 16 µg/mL (≈ 27.4 µM)
MIC ([2]; MTB strain 8266): 8 µg/mL (≈ 13.7 µM)
MIC ([2]; MTB strain 8642): 16 µg/mL (≈ 27.4 µM)
MIC (MTB H37Rv): 8 µg/mL (≈ 13.7 µM)
MIC (M. avium complex (MAC); 336 h, MAC isolates, 2 wk, read-out: MIC (range)): 4 to 32 µg/mL (≈ 6.85 to 54.8 µM)
MIC (M. avium complex (MAC); MAC strain 100, read-out: MIC): 16 µg/mL (≈ 27.4 µM)
MIC (M. avium complex (MAC); MAC strain 101, read-out: MIC): 8 µg/mL (≈ 13.7 µM)
MIC (M. avium complex (MAC); MAC strain 104, read-out: MIC): 16 µg/mL (≈ 27.4 µM)
MIC (M. avium complex (MAC); MAC strain 109, read-out: MIC): 8 µg/mL (≈ 13.7 µM)
MIC (M. avium complex (MAC); MAC strain A5, read-out: MIC): 16 µg/mL (≈ 27.4 µM)
MIC (M. avium complex (MAC); MAC strain JSH1, read-out: MIC): 32 µg/mL (≈ 54.8 µM)
MIC (M. avium complex (MAC); MAC strain NIH C1-1, read-out: MIC): 8 µg/mL (≈ 13.7 µM)
MIC (M. avium complex (MAC); MAC strain NIH C1-2, read-out: MIC): 4 µg/mL (≈ 6.85 µM)
MIC (M. avium complex (MAC); MAC strain NIH C1-3, read-out: MIC): 16 µg/mL (≈ 27.4 µM)
MIC (M. avium complex (MAC); MAC strain NIH C1-4, read-out: MIC): 8 µg/mL (≈ 13.7 µM)
MIC90 (M. avium complex (MAC); MAC isolates, value in square brackets, read-out: MIC90): 16 µg/mL (≈ 27.4 µM)
Bacterial disintegration / clearance of MTB cultures (MTB cultures; MTB cultures): rapid bacterial disintegration
Turbidity of MTB cultures (MTB cultures; within 2 days of exposure): marked fall in the turbidity
IC50 against translocase I (translocase I): 0.01 µg/mL (≈ 0.0171 µM)
MIC [3]: 16 µg/mL (≈ 27.4 µM)
MIC ([4]; ATCC 12478 / ATCC 35775, MKN ATCC35775): 4 µg/mL (≈ 6.85 µM)
MIC ([4]; MKN ATCC12478): 16 µg/mL (≈ 27.4 µM)
IC50 (in vitro): > 32 µg/mL
Routes by which replication of MTB in lungs was prevented (vs early control) (MTB): gav and iv
Toxicity [5]: No toxicity
